Results reported in US6979686B1, “Substituted pyrazoles as p38 kinase inhibitors” (Pharmacia Corporation, priority 2001, dated 2005).

Biological target: T1, human p38 kinase alpha (Homo sapiens, UniProt Q16539)
T1 construct: GST (N, cleaved yes); made in house; host or cells: E. coli DH10B
Assay: p38 kinase in vitro assay, phosphorylation of biotinylated PHAS-I with 32P-ATP
Assay type: biochemical
Details: @ 1.0 uM

T1 sequence (Q16539 whole entry): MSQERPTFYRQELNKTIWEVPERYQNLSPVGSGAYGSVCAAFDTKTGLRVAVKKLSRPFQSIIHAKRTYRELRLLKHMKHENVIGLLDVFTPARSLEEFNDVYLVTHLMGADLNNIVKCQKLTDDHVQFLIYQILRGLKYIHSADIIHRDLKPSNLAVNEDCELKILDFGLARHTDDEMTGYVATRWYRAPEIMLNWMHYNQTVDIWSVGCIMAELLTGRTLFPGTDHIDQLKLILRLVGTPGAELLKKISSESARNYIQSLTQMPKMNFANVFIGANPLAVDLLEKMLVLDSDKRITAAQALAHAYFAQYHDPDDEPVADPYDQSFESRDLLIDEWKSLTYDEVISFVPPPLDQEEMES

Question: How did the “P38 alpha kinase % inhib @ conc. (uM)” value turn out when `COc1ccc(S(=O)(=O)NCCc2[nH]nc(-c3ccc(F)cc3)c2-c2ccncc2)cc1` [Example B-1025] was run?
Answer: 61.0% @

Question: Which “P38 alpha kinase % inhib @ conc. (uM)” value does the source give for `O=C(NCCCc1[nH]nc(-c2ccc(F)cc2)c1-c1ccncc1)c1cnc2ccccc2n1` [Example B-1189] here?
Answer: 68.0% @

Question: For `CC(C)(C)C(=O)NCCc1[nH]nc(-c2ccc(F)cc2)c1-c1ccncc1` [Example B-1052], which “P38 alpha kinase % inhib @ conc. (uM)” value is on record?
Answer: 69.0% @

Question: `COc1ccc(NC(=O)NCCCc2[nH]nc(-c3ccc(F)cc3)c2-c2ccncc2)c(OC)c1` [Example B-1227] was tested. Which “P38 alpha kinase % inhib @ conc.” value did it give?
Answer: 83.0% @

Question: How did the “P38 alpha kinase % inhib @ conc. (uM)” value turn out when `CCOC(=O)NCCc1[nH]nc(-c2ccc(F)cc2)c1-c1ccncc1` [Example B-1054] was run?
Answer: 79.0% @

Question: With `COc1ccc(S(=O)(=O)NCCCc2[nH]nc(-c3ccc(F)cc3)c2-c2ccncc2)cc1OC` [Example B-1205] as the compound, how does the “P38 alpha kinase % inhib @ conc.” value read?
Answer: 74.0% @

Question: How did the “P38 alpha kinase % inhib @ conc.” value turn out when `Cc1ccc(S(=O)(=O)NCCCc2[nH]nc(-c3ccc(F)cc3)c2-c2ccncc2)cc1` [Example B-1204] was run?
Answer: 68.0% @

Question: For `CC(Oc1ccccc1)C(=O)NCCc1[nH]nc(-c2ccc(F)cc2)c1-c1ccncc1` (stereo not drawn) [Example B-1009], which “P38 alpha kinase % inhib @ conc. (uM)” value is on record?
Answer: 80.0% @

Question: Which “P38 alpha kinase % inhib @ conc.” value does the source give for `O=C(NCCCc1[nH]nc(-c2ccc(F)cc2)c1-c1ccncc1)Nc1ccccc1` [Example B-1220] here?
Answer: 81.0% @

Same assay, conditions: @ 1.0 uM; read-out: P38 alpha kinase % inhib @ conc.

Question: For `O=C(NCc1[nH]nc(-c2ccc(F)cc2)c1-c1ccncc1)c1ccc(-c2ccccc2)cc1` [Example B-0008], which inhibition at 1 µM is on record?
Answer: 42%

Question: For `O=C(NCc1[nH]nc(-c2ccc(F)cc2)c1-c1ccncc1)c1ccc([N+](=O)[O-])cc1` [Example B-0022], which inhibition at 1 µM is on record?
Answer: 69%

Same assay, conditions: @ 10.0 uM

Question: With `Cc1c(-c2ccncc2)c(-c2ccc(F)cc2)nn1CC(=O)Nc1c(Cl)cccc1Cl` [Example B-2421] as the compound, how does the “P38 alpha kinase IC50, uM or % inhib @ conc. (uM): % inhib” value (shortened to “P38 alpha kinase IC50 … % inhib”) read?
Answer: 89.0% 2

Question: Which “P38 alpha kinase IC50 … % inhib” value does the source give for `CSc1ccccc1NC(=O)Cn1nc(-c2ccc(F)cc2)c(-c2ccncc2)c1C` [Example B-2428] here?
Answer: 82.0% @

Question: Which “P38 alpha kinase IC50 … % inhib” value does the source give for `Cc1c(-c2ccncc2)c(-c2ccc(F)cc2)nn1CC(=O)N1CCSC1c1ccco1` (stereo not drawn) [Example B-2409] here?
Answer: 78.0% @

Question: For `Cc1c(-c2ccncc2)c(-c2ccc(F)cc2)nn1CC(=O)N(Cc1ccco1)CC(C)C` [Example B-2378], which “P38 alpha kinase % inhib @ conc.” value is on record?
Answer: 48.0% @

Question: With `CCOC(=O)CC(C)NC(=O)Cn1nc(-c2ccc(F)cc2)c(-c2ccncc2)c1C` (stereo not drawn) [Example B-2343] as the compound, how does the “P38 alpha kinase % inhib @ conc.” value read?
Answer: 43.0% @

Question: How did the “P38 alpha kinase IC50 … % inhib” value turn out when `Cc1c(-c2ccncc2)c(-c2ccc(F)cc2)nn1CC(=O)Nc1ccccc1C(=O)OC(C)C` [Example B-2454] was run?
Answer: 88.0% @

Question: Which “P38 alpha kinase IC50 … % inhib” value does the source give for `CCCCCCCOc1ccc(NC(=O)Cn2nc(-c3ccc(F)cc3)c(-c3ccncc3)c2C)cc1` [Example B-2452] here?
Answer: 89.0% @

Question: With `COc1ccc2nc(NC(=O)Cn3nc(-c4ccc(F)cc4)c(-c4ccncc4)c3C)sc2c1` [Example B-2414] as the compound, how does the “P38 alpha kinase IC50 … % inhib” value read?
Answer: 86.0% @

Question: `Cc1c(-c2ccncc2)c(-c2ccc(F)cc2)nn1CC(=O)NC1CCN(Cc2ccccc2)CC1` [Example B-2332] was tested. Which “P38 alpha kinase % inhib @ conc.” value did it give?
Answer: 70.0% @

Same assay, conditions: activated human p38 kinase alpha, PHAS-I substrate, 50 μM unlabeled ATP; read-out: p38 kinase IC50

Question: `Cc1[nH]nc(-c2ccc(Cl)cc2Cl)c1-c1ccncc1` [Example A-50] was tested. Which IC50 did it give?
Answer: 2300 nM

Same assay, conditions: in vitro P38-alpha kinase inhibition; read-out: P38 alpha kinase IC50

Question: `O=S(=O)(NC(Cc1ccccc1)c1[nH]nc(-c2ccc(F)cc2)c1-c1ccncc1)c1ccccc1` (stereo not drawn) [Example B-0753] was tested. Which IC50 did it give?
Answer: 370 nM

Question: How did the IC50 turn out when `O=S(=O)(NCCc1[nH]nc(-c2ccc(F)cc2)c1-c1ccncc1)c1ccc(F)c(Cl)c1` [Example B-1094] was run?
Answer: 13 nM

Question: For `CCCNC(=O)NC(Cc1ccccc1)c1[nH]nc(-c2ccc(F)cc2)c1-c1ccncc1` (stereo not drawn) [Example B-0735], which IC50 is on record?
Answer: 1000 nM

Question: Which IC50 does the source give for `COc1ccc(OC)c(S(=O)(=O)NC(C)c2[nH]nc(-c3ccc(F)cc3)c2-c2ccncc2)c1` (stereo not drawn) [Example B-0634] here?
Answer: 600 nM

Question: For `CC(NS(=O)(=O)c1ccc(Cl)cc1Cl)c1[nH]nc(-c2ccc(F)cc2)c1-c1ccncc1` (stereo not drawn) [Example B-0625], which IC50 is on record?
Answer: 23 nM

Question: `CC(NC(=O)NC(Cc1ccccc1)c1[nH]nc(-c2ccc(F)cc2)c1-c1ccncc1)c1ccccc1` (stereo not drawn) [Example B-0784] was tested. Which IC50 did it give?
Answer: 7000 nM

Question: For `CCCCS(=O)(=O)NC(Cc1ccccc1)c1[nH]nc(-c2ccc(F)cc2)c1-c1ccncc1` (stereo not drawn) [Example B-0716], which IC50 is on record?
Answer: 4600 nM

Question: For `O=C(Nc1ccccc1)NC(Cc1ccccc1)c1[nH]nc(-c2ccc(F)cc2)c1-c1ccncc1` (stereo not drawn) [Example B-0782], which IC50 is on record?
Answer: 22000 nM

Question: `O=C(NCCc1[nH]nc(-c2ccc(F)cc2)c1-c1ccncc1)c1ccc(F)c(C(F)(F)F)c1` [Example B-1140] was tested. Which IC50 did it give?
Answer: 1680 nM

Question: Which IC50 does the source give for `O=C(NC(Cc1ccccc1)c1[nH]nc(-c2ccc(F)cc2)c1-c1ccncc1)C1CCCN1` (stereo not drawn) [Example B-0749] here?
Answer: 4400 nM

Question: With `CC(=O)Nc1nc(C)c(S(=O)(=O)NCCc2[nH]nc(-c3ccc(F)cc3)c2-c2ccncc2)s1` [Example B-1058] as the compound, how does the IC50 read?
Answer: 660 nM

Question: With `CC(NC(=O)c1cc(C(F)(F)F)ccc1F)c1[nH]nc(-c2ccc(F)cc2)c1-c1ccncc1` (stereo not drawn) [Example B-0683] as the compound, how does the IC50 read?
Answer: 13000 nM

Question: `CC(NC(=O)c1ccc(C(F)(F)F)cc1F)c1[nH]nc(-c2ccc(F)cc2)c1-c1ccncc1` (stereo not drawn) [Example B-0685] was tested. Which IC50 did it give?
Answer: 15400 nM

Question: Which IC50 does the source give for `CC(=O)OCC(=O)NC(Cc1ccccc1)c1[nH]nc(-c2ccc(F)cc2)c1-c1ccncc1` (stereo not drawn) [Example B-0829] here?
Answer: 610 nM

Question: For `CC(NS(=O)(=O)c1cccc2ccccc12)c1[nH]nc(-c2ccc(F)cc2)c1-c1ccncc1` (stereo not drawn) [Example B-0618], which IC50 is on record?
Answer: 370 nM

Same assay, conditions: in vitro P38-alpha kinase; read-out: P38 alpha kinase IC50

Question: How did the IC50 turn out when `O=C(c1ccco1)N1CCC(c2[nH]nc(-c3ccc(F)cc3)c2-c2ccncc2)CC1` [Example B-1383] was run?
Answer: 1.2 nM

Question: How did the IC50 turn out when `O=C(c1ccccc1I)N1CCC(c2[nH]nc(-c3ccc(F)cc3)c2-c2ccncc2)CC1` [Example B-1359] was run?
Answer: 5 nM

Question: `CC(C)c1cc(C(C)C)c(C(=O)NCCCc2[nH]nc(-c3ccc(F)cc3)c2-c2ccncc2)c(C(C)C)c1` [Example B-1326] was tested. Which IC50 did it give?
Answer: 92 nM

Question: With `O=S(=O)(c1cccs1)N1CCC(c2[nH]nc(-c3ccc(F)cc3)c2-c2ccncc2)CC1` [Example B-1437] as the compound, how does the IC50 read?
Answer: 300 nM

Question: `O=C(NCCCc1[nH]nc(-c2ccc(F)cc2)c1-c1ccncc1)c1cccc(C(F)(F)F)c1F` [Example B-1339] was tested. Which IC50 did it give?
Answer: 120 nM

Question: For `O=C(c1ccccc1Br)N1CCC(c2[nH]nc(-c3ccc(F)cc3)c2-c2ccncc2)CC1` [Example B-1398], which IC50 is on record?
Answer: 670 nM

Question: For `O=C(NCCCc1[nH]nc(-c2ccc(F)cc2)c1-c1ccncc1)c1ccc(C(F)(F)F)cc1` [Example B-1356], which IC50 is on record?
Answer: 59 nM

Question: For `O=C(c1ccccc1C(F)(F)F)N1CCC(c2[nH]nc(-c3ccc(F)cc3)c2-c2ccncc2)CC1` [Example B-1399], which IC50 is on record?
Answer: 140 nM

Question: For `O=C(NCCCc1[nH]nc(-c2ccc(F)cc2)c1-c1ccncc1)c1cccc2ccccc12` [Example B-1329], which IC50 is on record?
Answer: 660 nM

Question: `COCCNC(=O)NCCCc1[nH]nc(-c2ccc(F)cc2)c1-c1ccncc1` [Example B-1311] was tested. Which IC50 did it give?
Answer: 50 nM

Question: Which IC50 does the source give for `O=S(=O)(NCCCc1[nH]nc(-c2ccc(F)cc2)c1-c1ccncc1)c1ccc2ccccc2c1` [Example B-1280] here?
Answer: 39 nM

Question: Which IC50 does the source give for `O=C(NCCCc1[nH]nc(-c2ccc(F)cc2)c1-c1ccncc1)c1c(F)cccc1F` [Example B-1352] here?
Answer: 13 nM

Question: How did the IC50 turn out when `Cc1c(-c2ccncc2)c(-c2ccc(F)cc2)nn1CC(=O)NCc1cccc2ccccc12` [Example B-2285] was run?
Answer: 2290 nM

Question: How did the IC50 turn out when `O=C(NCCCc1[nH]nc(-c2ccc(F)cc2)c1-c1ccncc1)c1ccccc1F` [Example B-1351] was run?
Answer: 68 nM

Question: `O=S(=O)(NCCCc1[nH]nc(-c2ccc(F)cc2)c1-c1ccncc1)c1cccc2cnccc12` [Example B-1295] was tested. Which IC50 did it give?
Answer: 79 nM
